The text below walks through data of US6156801A, “2-phenoxyaniline derivatives” (Taisho Pharmaceutical Co., Ltd., priority 1997, dated 2000).

Counter-ions that a name gives are not always drawn.

For the test, the target named is T1, Na^+ /Ca^2+ exchange system (Canis lupus familiaris, UniProt P23685).
T1 construct: Sarcolemmal vesicles which were prepared from the removed dog ventricular muscles; from tissue; host or cells: dog ventricular muscle, sarcolemmal vesicles
Briefly: Inhibitory action on Na+/Ca2+ exchange system using myosarcolemmal vesicles (45Ca uptake). The test is classed as biochemical. The conditions noted are these: sarcolemmal vesicles from dog ventricular muscles; Na+-loaded; 20 μM [45Ca]-calcium chloride, pH 7.4, 10 seconds uptake. As to the method:
Inhibitors Action on a Na^+ /Ca^2+ Exchange System using Myosarcolemmal Vesicles Sarcolemmal vesicles which were prepared from the removed dog ventricular muscles by referring to the method described in the literature (L. R. Jones, Methods, Enzymol., 1988, 157, pp. 85) were used. A Na^+ /Ca^2+ exchange activity using the sarcolemmal vesicles was measured by referring to the method described in the literature (K. D. Philipson, et al., J. Biol. Chem., 1980, 255, pp. 6880). First, the sarcolemmal vesicles were suspended in a sodium-containing solution [160 mM sodium chloride, 20 mM […] (pH 7.4)] to make up to a protein concentration of 1.5 mg/ml, and allowed to stand for an hour to load Na^+ in the sarcolemmal vesicles. To 2.5 μl of the sarcolemmal vesicles was added 125 μl of a [^45 Ca]-calcium chloride solution [20 μM [^45 Ca]-calcium chloride, 160 mM potassium chloride and 20 mM Mops-Tris (pH 7.4)], and after 10 seconds, 900 μl of an ice-cooled lanthanum chloride solution [10 mM lanthanum chloride, 160 mM potassium chloride and 20 mM Mops-Tris (pH 7.4)] was added. The sarcolemmal vesicles were recovered on a nitrocellulose filter by suction filtration and washed three times with 900 μl of a lanthanum chloride solution. The concentration of Ca^2+ uptake in the sarcolemmal vesicles was determined by measuring a ^45 Ca radioactivity by a scintillator. In addition, a Na^+ /Ca^2+ exchange activity-independent Ca^2+ uptake in the sarcolemmal vesicles was determined by carrying out the same procedure using a potassium-containing solution [160 mM potassium chloride, 20 mM Tris-hydrochloric acid (pH 7.4)] instead of the sodium-containing solution. The test compound was used as a dimethyl sulfoxide solution thereof, and its inhibitory effect was evaluated in comparison with the vehicle-treatedgroup. The IC50 value was determined from a dose inhibition curve of the test compound by using the minimum square method.

One may read the IC50 as the concentration at which inhibition is half-maximal.

For `NC(=O)COc1ccc(Oc2ccc(OCc3ccccc3)cc2)c(N)c1` [Example 19, 3-Amino-4-[4-(benzyloxy)phenoxy]phenoxy-acetamide hydrochloride], the half-inhibitory concentration (IC50) is 14 µM.

In the case of `COc1ccc(Oc2ccc(OCc3ccccc3)cc2)c(N)c1` [Example 1, 2-[4-(Benzyloxy)phenoxy]-5-methoxyaniline hydrochloride], the half-maximal inhibitory concentration (IC50) stood at 1.1 µM.

With `COC(=O)COc1ccc(Oc2ccc(OCc3ccccc3)cc2)c(N)c1` [Example 20, Methyl 3-amino-4-[4-(benzyloxy)-phenoxy]phenoxyacetate hydrochloride], the IC50 came out at 2.8 µM.

Regarding `CCOc1ccc(Oc2ccc(OCc3ccccc3)cc2)c(N)c1` [Example 17, 2-[4-(Benzyloxy)phenoxy-5-ethoxyaniline hydrochloride], the IC50 was determined as 2.5 µM.

As for `Nc1cccc(N)c1Oc1ccc(OCc2ccccc2)cc1` [Example 14, 2-[4-(Benzyloxy)phenoxy]-1,3-phenylenediamine dihydrochloride], the concentration for half-maximal inhibition (IC50) stood at 8.2 µM.
